{"source": "patent US11634450B2", "about": "“DOT1L degraders and uses thereof” (DANA-FARBER CANCER INSTITUTE, INC., priority 2018, dated 2023)", "key": {"DOT1L [1]": {"target": "T1, DOT1L (Homo sapiens, UniProt Q8TEK3)", "T1 sequence (Q8TEK3 whole entry)": "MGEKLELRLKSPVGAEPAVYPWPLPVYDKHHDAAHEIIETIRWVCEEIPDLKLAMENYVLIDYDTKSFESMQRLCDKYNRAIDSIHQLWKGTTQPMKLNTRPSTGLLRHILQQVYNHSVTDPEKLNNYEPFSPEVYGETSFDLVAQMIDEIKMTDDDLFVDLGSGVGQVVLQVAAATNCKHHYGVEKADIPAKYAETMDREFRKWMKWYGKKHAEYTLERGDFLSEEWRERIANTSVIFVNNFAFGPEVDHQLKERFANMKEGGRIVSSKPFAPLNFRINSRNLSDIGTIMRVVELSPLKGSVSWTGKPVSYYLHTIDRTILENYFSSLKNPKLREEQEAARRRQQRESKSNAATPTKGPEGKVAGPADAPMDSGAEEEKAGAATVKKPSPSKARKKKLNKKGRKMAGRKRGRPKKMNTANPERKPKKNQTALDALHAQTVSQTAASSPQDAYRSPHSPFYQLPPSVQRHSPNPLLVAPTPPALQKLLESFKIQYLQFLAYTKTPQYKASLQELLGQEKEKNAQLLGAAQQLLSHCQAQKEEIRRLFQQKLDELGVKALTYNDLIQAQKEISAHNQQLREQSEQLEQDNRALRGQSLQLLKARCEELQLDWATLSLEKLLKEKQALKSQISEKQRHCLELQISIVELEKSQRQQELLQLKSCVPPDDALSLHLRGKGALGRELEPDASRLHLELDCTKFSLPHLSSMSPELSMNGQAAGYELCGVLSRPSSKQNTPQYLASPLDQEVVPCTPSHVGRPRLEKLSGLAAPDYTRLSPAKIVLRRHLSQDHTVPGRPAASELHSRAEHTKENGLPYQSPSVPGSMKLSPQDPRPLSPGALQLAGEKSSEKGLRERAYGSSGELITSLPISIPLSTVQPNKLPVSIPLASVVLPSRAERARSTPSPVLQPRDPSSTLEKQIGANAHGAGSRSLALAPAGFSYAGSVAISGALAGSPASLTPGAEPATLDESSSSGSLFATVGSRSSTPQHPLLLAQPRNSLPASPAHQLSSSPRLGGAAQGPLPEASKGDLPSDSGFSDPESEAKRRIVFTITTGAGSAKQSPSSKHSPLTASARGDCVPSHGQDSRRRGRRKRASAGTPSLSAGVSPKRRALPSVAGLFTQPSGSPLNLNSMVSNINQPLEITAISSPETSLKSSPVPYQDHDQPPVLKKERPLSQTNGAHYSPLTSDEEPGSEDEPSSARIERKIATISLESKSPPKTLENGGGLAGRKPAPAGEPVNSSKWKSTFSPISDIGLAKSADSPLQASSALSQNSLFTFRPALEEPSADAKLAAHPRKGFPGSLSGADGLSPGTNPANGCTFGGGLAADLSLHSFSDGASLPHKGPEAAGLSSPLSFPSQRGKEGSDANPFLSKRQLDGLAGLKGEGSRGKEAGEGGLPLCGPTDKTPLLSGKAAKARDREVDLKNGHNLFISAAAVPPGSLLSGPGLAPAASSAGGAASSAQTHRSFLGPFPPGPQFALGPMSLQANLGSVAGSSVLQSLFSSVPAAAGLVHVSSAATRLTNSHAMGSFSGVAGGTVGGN", "assay": "Degradation in Molm13 PA cell line by immunoblot", "type": "cell-based", "design": "endogenous in cells", "conditions": "FIGS. 9A-9B, 0.3 μM to 10 μM, 24, 48 and 72 hours", "method": "FIGS. 9A-9B show acute myeloid leukemia cells (Molm13 PA) treated with DOT1L-1 at the indicated concentrations for the indicated amount of time. The cells were immunoblotted with DOT1L (D402T), actin, and H3K79me2.\nThe cells were immunoblotted with DOT1L (D402T), actin, and H3K79me2.\nMolm13PA (acute myeloid leukemia) cells were treated with dDOT1L-1 at 0 μM, 0.3 μM, 1 μM, 3.3 μM, and 10 μM for 24 hours and 48 hours. Cell lysates were loaded on SDS-PAGE, then immunoblotted with DOT1L (D402T), actin, H3K79me2, total H3. Repeat treatment was performed at 24 hours, 48 hours and 72 hours at the same concentrations of dDOT1L-1. […] (see FIGS. 9A-9B).\nMolm13PA (acute myeloid leukemia) cells were treated with DOT1L-4 at 0 μM, 0.3 μM, 1 μM, 3.3 μM, and 10 μM for 24 hours, 48 hours, and 72 hours. Cell lysates were loaded on SDS-PAGE, then immunoblotted with DOT1L (D402T), actin, H3K79me2, total H3."}, "DOT1L [2]": {"target": "T2, DOT1L (Mus musculus, UniProt Q6XZL8)", "T2 construct": "endogenous in cells; host or cells: mouse MLL-AF9 PA leukemia cells", "T2 sequence (Q6XZL8 1-1540)": "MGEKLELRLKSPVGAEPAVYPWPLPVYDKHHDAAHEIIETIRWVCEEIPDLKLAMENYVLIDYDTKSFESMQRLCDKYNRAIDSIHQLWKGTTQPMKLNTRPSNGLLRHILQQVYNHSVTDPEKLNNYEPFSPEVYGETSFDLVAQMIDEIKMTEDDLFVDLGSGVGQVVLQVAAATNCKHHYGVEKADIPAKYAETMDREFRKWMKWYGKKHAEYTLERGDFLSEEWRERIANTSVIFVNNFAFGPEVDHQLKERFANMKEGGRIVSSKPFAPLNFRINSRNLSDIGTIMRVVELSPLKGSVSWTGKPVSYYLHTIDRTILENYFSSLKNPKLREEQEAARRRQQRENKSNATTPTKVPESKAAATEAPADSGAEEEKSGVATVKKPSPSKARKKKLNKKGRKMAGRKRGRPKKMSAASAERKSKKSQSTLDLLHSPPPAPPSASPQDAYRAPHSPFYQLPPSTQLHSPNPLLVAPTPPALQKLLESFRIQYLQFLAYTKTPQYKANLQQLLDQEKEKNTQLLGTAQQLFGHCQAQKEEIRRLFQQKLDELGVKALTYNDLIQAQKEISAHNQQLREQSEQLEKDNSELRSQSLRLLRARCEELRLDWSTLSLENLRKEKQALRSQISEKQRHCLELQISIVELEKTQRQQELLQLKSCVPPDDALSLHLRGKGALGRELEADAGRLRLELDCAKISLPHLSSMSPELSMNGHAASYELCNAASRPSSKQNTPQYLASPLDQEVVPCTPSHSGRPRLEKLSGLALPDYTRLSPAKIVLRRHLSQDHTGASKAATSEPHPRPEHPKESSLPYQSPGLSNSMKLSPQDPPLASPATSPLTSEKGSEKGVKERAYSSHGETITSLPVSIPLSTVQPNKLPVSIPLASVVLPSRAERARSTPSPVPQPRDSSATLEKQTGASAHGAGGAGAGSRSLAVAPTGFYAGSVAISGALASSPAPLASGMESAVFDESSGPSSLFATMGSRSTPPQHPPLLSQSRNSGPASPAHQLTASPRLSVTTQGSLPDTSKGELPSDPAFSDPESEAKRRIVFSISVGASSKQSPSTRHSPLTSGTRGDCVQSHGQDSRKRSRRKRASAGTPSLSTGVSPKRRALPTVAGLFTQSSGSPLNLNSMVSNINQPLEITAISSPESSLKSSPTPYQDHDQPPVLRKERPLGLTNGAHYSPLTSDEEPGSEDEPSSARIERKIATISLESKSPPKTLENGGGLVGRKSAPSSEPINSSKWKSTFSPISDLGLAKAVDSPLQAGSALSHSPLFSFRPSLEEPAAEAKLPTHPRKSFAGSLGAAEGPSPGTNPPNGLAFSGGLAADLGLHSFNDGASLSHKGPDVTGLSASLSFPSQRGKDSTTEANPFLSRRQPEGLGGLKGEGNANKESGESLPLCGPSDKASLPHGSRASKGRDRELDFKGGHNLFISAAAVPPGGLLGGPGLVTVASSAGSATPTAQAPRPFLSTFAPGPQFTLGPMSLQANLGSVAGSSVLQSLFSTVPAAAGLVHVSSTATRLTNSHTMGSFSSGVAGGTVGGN", "assay": "Degradation in mouse MLL-AF9 PA cell line by immunoblot", "type": "cell-based", "conditions": "FIGS. 10A-10B, mouse MLL-AF9 PA cells, up to 10 μM, 24, 48 and 72 hours", "method": "FIGS. 10A-10B show mouse MLL-AF9 PA (Mixed-lineage leukemia (MLL)-AF9 leukemia) cells treated with DOT1L-1 at the indicated concentrations for the indicated amount of time. The cells were immunoblotted with DOT1L (D402T), actin, and H3K79me2.\nMouse MLL-AF9 PA (Mixed-lineage leukemia (MLL)-AF9 leukemia) cells were treated with DOT1L-1 at 0 μM, 0.3 μM, 1 μM, 3.3 μM, and 10 μM for 24 hours, 48 hours, and 72 hours. Cell lysates were loaded on SDS-PAGE, then immunoblotted with DOT1L (D402T), actin, H3K79me2, and total H3. A second treatment was performed with DOT1L-1 concentrations of 0 μM, 0.01 μM, 0.1 μM, 0.3 μM, 1 μM, 3.3 μM, and 10 μM, at 24 hours and 48 hours."}, "DOT1L [3]": {"target": "T1, DOT1L", "assay": "DOT1L degradation in EOL1 cells by immunoblot", "type": "cell-based", "design": "endogenous in cells; host or cells: EOL1", "conditions": "for DOT1L degradation: immunoblot", "method": "With JQ-DD6, the degradation happened at 16 hours and maximum degradation occurs at 24 hours.\n(§1) EOL1 (acute myeloid (eosinophilic) leukemia cell line) cells were treated with exemplary DOT1L degrader compounds JQ-DD6, JQ-DD7, and JQ-DD8 at 0.5 μM, 1 μM, 3 μM, 5 μM, and 10 μM for 24 hours. Cell lysates were loaded on SDS-PAGE, then immunoblotted with DOT1L, Myc, H3K79me2, and actin. (see FIG. 21).\nEOL1 cells were treated with exemplary DOT1L degrader compounds JQ-DD2, JQ-DD4, and JQ-DD6, JQ-DD7, and JQ-DD8 at 1 μM and […] for 2, 4, 8, 16, and 24 hours. Cell lysates were immunoblotted with DOT1L, Myc, H3K79me2, and actin at the indicated concentrations for the indicated times. (see FIG. 23).\n(§2) EOL1 cells were treated with exemplary DOT1L degrader compounds JQ-DD6, JQ-DD7, and JQ-DD8 at 1 μM and […] for 24 and 48 hours. Cell lysates were immunoblotted with DOT1L, Myc, H3K79me2, and actin at the indicated concentrations for the indicated times. (see FIG. 24)."}, "EOL1 cells": {"tested_on": "EOL1 cells", "assay": "Toxicity seen in EOL1 cells treated for immunoblot", "type": "cell-based", "conditions": "at 24 hours", "method": "as §1, §2"}, "CRBN with DOT1L": {"target": "CRBN with DOT1L (Homo sapiens, UniProt Q8TEK3+Q96SW2)", "sequence (Q8TEK3 whole entry)": "as the sequence (Q8TEK3 whole entry) above", "sequence (Q96SW2 whole entry)": "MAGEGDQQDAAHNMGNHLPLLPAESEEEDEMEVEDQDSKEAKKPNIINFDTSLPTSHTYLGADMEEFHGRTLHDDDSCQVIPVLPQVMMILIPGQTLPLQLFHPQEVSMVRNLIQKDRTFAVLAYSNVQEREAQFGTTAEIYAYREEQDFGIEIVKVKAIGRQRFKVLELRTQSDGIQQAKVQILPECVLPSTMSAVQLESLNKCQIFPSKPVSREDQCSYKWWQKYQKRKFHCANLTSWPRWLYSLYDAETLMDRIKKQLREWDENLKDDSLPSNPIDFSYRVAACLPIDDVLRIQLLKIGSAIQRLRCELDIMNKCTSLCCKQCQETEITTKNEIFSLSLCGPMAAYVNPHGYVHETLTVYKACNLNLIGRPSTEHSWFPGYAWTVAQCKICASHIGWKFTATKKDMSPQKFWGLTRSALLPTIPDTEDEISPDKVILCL", "assay": "Biochemical dimerization assay of CRBN with DOT1L induced by the degraders", "conditions": "FIG. 20, biochemical assay setting", "from_the_text": "This new assay checks if the exemplary compounds can dimerize CRBN and DOT1L in a biochemical assay setting.\nA biochemical assay was completed to determine the dimerization of CRBN with DOT1L induced by the degraders. This assay checks if the exemplary compounds can dimerize CRBN and DOT1L in a biochemical assay setting."}, "[4]": {"target": "T3, DOT1L tagged GFP and mcherry (Homo sapiens, UniProt Q8TEK3+Q96SW2)", "T3 construct": "eGFP; mCherry; expressed in transfected cells", "T3 sequence (Q8TEK3 whole entry)": "as the sequence (Q8TEK3 whole entry) above", "T3 sequence (Q96SW2 whole entry)": "as the sequence (Q96SW2 whole entry) above", "T3 sequence (Q16531 whole entry partner)": "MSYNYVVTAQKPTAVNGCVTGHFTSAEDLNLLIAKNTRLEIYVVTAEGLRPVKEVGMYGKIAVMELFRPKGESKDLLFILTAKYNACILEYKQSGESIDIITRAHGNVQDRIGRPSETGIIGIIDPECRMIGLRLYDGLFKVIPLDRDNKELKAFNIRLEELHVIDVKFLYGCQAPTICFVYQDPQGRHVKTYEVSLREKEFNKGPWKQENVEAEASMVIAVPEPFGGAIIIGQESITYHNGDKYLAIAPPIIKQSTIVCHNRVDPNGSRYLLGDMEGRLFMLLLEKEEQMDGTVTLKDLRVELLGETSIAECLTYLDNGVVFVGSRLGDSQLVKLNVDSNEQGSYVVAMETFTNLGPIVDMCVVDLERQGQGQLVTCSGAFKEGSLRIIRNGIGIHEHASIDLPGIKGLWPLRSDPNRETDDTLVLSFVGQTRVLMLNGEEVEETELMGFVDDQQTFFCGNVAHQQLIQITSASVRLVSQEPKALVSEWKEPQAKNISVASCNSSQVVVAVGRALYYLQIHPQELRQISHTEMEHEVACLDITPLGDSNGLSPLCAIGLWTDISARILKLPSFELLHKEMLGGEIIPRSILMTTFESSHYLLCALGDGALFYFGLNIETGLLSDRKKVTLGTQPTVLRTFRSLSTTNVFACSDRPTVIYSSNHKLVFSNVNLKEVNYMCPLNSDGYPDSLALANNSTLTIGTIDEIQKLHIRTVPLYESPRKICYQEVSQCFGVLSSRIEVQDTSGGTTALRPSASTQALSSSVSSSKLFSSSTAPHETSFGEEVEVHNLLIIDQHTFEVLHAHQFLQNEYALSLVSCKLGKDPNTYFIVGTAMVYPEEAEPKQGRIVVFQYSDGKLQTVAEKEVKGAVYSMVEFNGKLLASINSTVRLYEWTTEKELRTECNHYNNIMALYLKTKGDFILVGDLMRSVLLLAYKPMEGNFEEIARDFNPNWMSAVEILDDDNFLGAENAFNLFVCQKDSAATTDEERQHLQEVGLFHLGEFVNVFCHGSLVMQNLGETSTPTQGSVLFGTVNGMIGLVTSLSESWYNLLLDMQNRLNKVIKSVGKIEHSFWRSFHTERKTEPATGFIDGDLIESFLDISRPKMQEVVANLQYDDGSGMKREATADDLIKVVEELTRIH", "assay": "DOT1L degradation eGFP-mCherry reporting cell line assay", "type": "cell-based", "conditions": "FIG. 26, eGFP-mCherry reporting cell line, 24 hour treatment", "method": "This can directly report the targeted protein degradation. (See Sievers et al., Science, 2018).\nThe tested compounds include exemplary DOT1L degrader compounds JQ-DD2, JQ-DD3, JQ-DD4, JQ-DD5, JQ-DD6, JQ-DD7, JQ-DD8, negative control EPZ5676, and positive controls thalidomide and lenalidomide. The eGFP-mCherry reporting cell line can report the degradation well in 24 hours.\nA new DOT1L degradation reporting cell line was developed with DOT1L tagged GFP and mcherry. This reporting cell line can directly report the targeted protein degradation. (See Sievers et al., Science, 2018). DOT1L degradation using eGFP-mCherry reporting cell line assays were conducted for exemplary DOT1L degrader compounds, and control compounds at different concentrations [M], measured in [M] per mP. The tested compounds include exemplary DOT1L degrader compounds JQ-DD2, JQ-DD3, JQ-DD4, JQ-DD5, JQ-DD6, JQ-DD7, JQ-DD8, and controls EPZ5676, Thalidomide, and Lenalidomide."}, "[5]": {"conditions": "FIG. 21, EOL1 cells, 0.5 μM, 1 μM, 3 μM, 5 μM, and 10 μM for 24 hours"}, "[6]": {"conditions": "FIG. 24, EOL1 cells, 1 μM and 10M for 24 and 48 hours"}, "[7]": {"conditions": "FIG. 23, EOL1 cells, time course 2, 4, 8, 16, and 24 hours, 1 μM and 10M"}}, "data": [{"smiles": "CC(C)N(C[C@H]1O[C@@H](n2cnc3c(NCCCCNC(=O)C=COCCOCCOCCNc4cccc5c4C(=O)N(C4CCC(=O)NC4=O)C5=O)ncnc32)[C@H](O)[C@@H]1O)C1CC(CCc2nc3cc(C(C)(C)C)ccc3[nH]2)C1", "note": "(stereo partly drawn) [DOT1L-1, N-(4-((9-((2R,3R,4S,5R)-5-(((3-(2-(5-(tert-butyl)-1H-benzo[d]imidazol-2-yl)ethyl)cyclobutyl)(isopropyl)amino)methyl)-3,4-dihydroxytetrahydrofuran-2-yl)-9H-purin-6-yl)amino)butyl)-3-(2-(2-(2-((2-(2,6-dioxopiperidin-3-yl)-1,3-dioxoisoindolin-4-yl)amino)ethoxy)ethoxy)ethoxy)propenamide]", "values": [{"measurement": "effect on Molm13 PA cells in blots (DOT1L, H3K79me2)", "setting": "DOT1L [1]", "value": "inhibits acute myeloid leukemia cells (Molm13 PA)"}, {"measurement": "degradation in blots (DOT1L, H3K79me2)", "setting": "DOT1L [2]", "value": "degrades Mouse MLL-AF9 PA (Mixed-lineage leukemia (MLL)-AF9 leukemia) cells"}]}, {"smiles": "CC(C)N(CCCNC(=O)Nc1ccc(C(C)(C)C)cc1)C[C@H]1O[C@@H](n2cnc3c(NCCCCNC(=O)CCCCCCCCCCCNc4cccc5c4C(=O)N(C4CCC(=O)NC4=O)C5=O)ncnc32)C(O)C1O", "note": "(stereo partly drawn) [JQ-DD8]", "values": [{"measurement": "DOT1L degradation", "setting": "DOT1L [3]; [5]", "value": "show degradation"}, {"measurement": "DOT1L degradation", "setting": "DOT1L [3]; [6]", "value": "shows degradation"}, {"measurement": "toxicity in EOL1", "setting": "EOL1 cells; FIG. 21, EOL1 cells", "value": "potential toxicity"}, {"measurement": "toxicity in EOL1", "setting": "EOL1 cells; FIG. 24, EOL1 cells", "value": "potential toxicity"}]}, {"smiles": "CC(C)N(C[C@H]1O[C@@H](n2cnc3c(NCCCCNC(=O)CCCCCCCCCNc4cccc5c4C(=O)N(C4CCC(=O)NC4=O)C5=O)ncnc32)C(O)C1O)C1CC(CCc2nc3cc(C(C)(C)C)ccc3[nH]2)C1", "note": "(stereo partly drawn) [JQ-DD7]", "values": [{"measurement": "DOT1L degradation", "setting": "DOT1L [3]; [5]", "value": "show degradation"}, {"measurement": "DOT1L degradation", "setting": "DOT1L [3]; [6]", "value": "shows degradation"}]}, {"smiles": "CC(C)N(C[C@H]1O[C@@H](n2cnc3c(NCCCCNC(=O)CCCCCCCCCCCNc4cccc5c4C(=O)N(C4CCC(=O)NC4=O)C5=O)ncnc32)C(O)C1O)C1CC(CCc2nc3cc(C(C)(C)C)ccc3[nH]2)C1", "note": "(stereo partly drawn) [JQ-DD6]", "values": [{"measurement": "DOT1L degradation", "setting": "DOT1L [3]; [5]", "value": "solid degradation"}, {"measurement": "time at which DOT1L degradation happened", "setting": "DOT1L [3]; [7]", "value": 16, "unit": "h"}, {"measurement": "time of maximum DOT1L degradation", "setting": "DOT1L [3]; [7]", "value": 24, "unit": "h"}, {"measurement": "DOT1L degradation", "setting": "DOT1L [3]; [6]", "value": "shows degradation"}, {"measurement": "activity in the cell", "setting": "DOT1L [3]; general remark in legend of FIG. 20, cell not named there", "value": "works very well in the cell"}, {"measurement": "dimerization of CRBN with DOT1L (signal)", "setting": "CRBN with DOT1L", "value": "strongest signal"}, {"measurement": "degradation of DOT1L (reporter signal)", "setting": "[4]", "value": "strongest signal for degradation of DOT1L"}]}]}
